Reference: patent US10077238B2, “Small molecule LFA-1 inhibitors” (ALLOCYTE PHARMACEUTICALS AG, priority 2014, dated 2018)

Assays:
Assay type in all cases: cell-based
[1] = test system: Jurkat cells; assay: Toxilight BioAssay (adenylate kinase release), Jurkat; conditions: 24 hours exposure, mean ± SD of triplicates
Description: (§1) Assessment of Cellular Toxicity (Toxilight Assay and CellTiter-Glo Assay)
(§2) Purpose. To detect potential cellular toxicity of present LFA-1 inhibitors two complementary assays were chosen: the Toxilight™ BioAssay (Lonza) and the CellTiter-Glo™ Luminescent Cell Viability Assay (Promega). The Toxilight assay measures cell death via the release of the cytosolic enzyme adenylate kinase into the supernatant of treated cell cultures. The CellTiter-Glo assay directly determines the key energy metabolite ATP, resulting in sensitive quantitation of the number of healthy cells in culture.
(§3) Both assays were used with two different cell lines: the Jurkat and HepG2 cell lines. Jurkat, a human lymphocytic leukemia cell line, was utilized to assess the effect of the compounds on LFA-1 expressing cells. HepG2, a human hepatocyte cell line, was used to assess the response of liver cells where drugs are metabolized. Both assays included the use of untreated cells, and cells treated with amiodarone or 0.5% Triton X 100 as cytotoxic controls.
(§4) Jurkat cells and HepG2 cells were cultured in RPMI 1640 containing 10% FCS or DMEM containing 10% FCS under standard conditions (recommended by ATCC). Compounds were dissolved in DMSO and serially pre-diluted in DMSO (100%) to avoid precipitation of the compounds, before final dilution steps in culture medium containing FCS were performed. The final DMSO concentration was kept constant at 0.5% in all samples.
(§5) The test compounds and controls were exposed to the cells for 24 hours respectively at 37° C. Then adenylate kinase activity was quantified in the supernatant of the cell cultures using the ToxiLight™ reagent. In an independent set of experiments ATP content was measured by adding the CellTiter-Glo™ reagent according to manufacturer's instructions.

[2] = test system: HepG2 cells; assay: CellTiter-Glo Luminescent Cell Viability Assay (ATP), HepG2; conditions: 24 hours exposure, mean ± SD of triplicates
Description: as §1, §2, §3, §4, §5

[3] = test system: HepG2 cells; assay: Toxilight BioAssay (adenylate kinase release), HepG2; conditions: 24 hours exposure, mean ± SD of triplicates
Description: as §1, §2, §3, §4, §5

[4] = molecular target: T1, VLA-4 (Homo sapiens, UniProt P05556+P13612); assay: V well cell adhesion assay, VLA-4-mediated Jurkat cell binding to VCAM-1 (VLA-4 adhesion); conditions: Jurkat cells on VCAM-1 Fc; single experiments run in triplicates
T1 construct: endogenous in cells; host or cells: Jurkat cells
Protocol: Cell-Based Assay to Determine the Selectivity of the Compounds Over the Integrin VLA-4 (VLA-4 Adhesion)
Purpose of the Assay: This V well cell adhesion assay measures the effect of the compounds on VLA-4-mediated Jurkat cell binding to VCAM-1. The assay has been successfully used in the past to determine the selectivity of small molecule LFA-1 inhibitors over the integrin VLA-4.
Experimental Protocol: The adhesion assay was performed as described above for the Jurkat/ICAM-1 V well adhesion assay. Briefly, plates were coated with anti-human IgG mAb and blocked with BSA as described above. Instead of ICAM-1, recombinant human VCAM-1/CD106 Fc chimera (R&D Systems) was coated onto the plates (0.3 μg/mL in coating buffer). After incubation, labelled Jurkat cells in binding buffer were transferred to the wells (20,000 cells/well). The plates were immediately centrifuged at 1000 rpm for 4 min at rt (Centrifuge Eppendorf 5810 R) setting the brakeoff. Non-adherent cells were quantified in the tip of the Vbottom well using a fluorescence reader. IC50 values of the compounds were calculated using the software GraphPad Prism 6.

[5] = molecular target: T2, LFA-1 (Homo sapiens, UniProt P20701); assay: V well cell adhesion assay, LFA-1-mediated Jurkat cell binding to ICAM-1 (LFA-1 adhesion); conditions: Jurkat cells on ICAM-1/Fc; mean ±SD of ≥3 independent experiments in triplicates or single experiments in triplicates
T2 construct: endogenous in cells; host or cells: Jurkat cells
Protocol: Cell-Based Assay to Determine the Effect of the Compounds on LFA-1-Mediated Cell Adhesion (LFA-1 Adhesion)
Purpose of the Assay: The V well cell adhesion assay measures the ability of the compounds to interfere with LFA-1-mediated binding to ICAM-1 at cellular level. The assay has been successfully used in the past to identify and characterize small molecules LFA-1 inhibitors.
Experimental Protocol: The adhesion assay was performed in Vbottom 96-well plates as described previously [Weitz-Schmidt 2012]. Briefly, the plates were coated with anti-human IgG mAb diluted in coating buffer (20 mM Tris containing 150 mM NaCl, pH 8) (1 μg/mL) and incubated overnight at 4° C. The plates were flicked out and blocked with blocking buffer (50 mM Tris base, 150 mM NaCl, 1.5% BSA (w/v), pH 7.2) at 37° C. for 90 min. Then human recombinant ICAM-1/Fc (R&D Systems) diluted in coating buffer (0.3 μg/mL) was added to each well. The plates were incubated at 37° C. for 90 min and washed with binding buffer (50 mM Tris base, 150 mM NaCl, 1.5% BSA (w/v), 2 mM MgCl2, 2 mM MnCl2, 5 mM D-glucose monohydrate, pH 7.2-7.4) to remove unbound ligand.
Jurkat cells were cultured under standard conditions as recommended by the American Type Culture collection (ATCC). The cells were fluorescently labelled with BCECF-AM in PBS (1 μg/mL) at 37° C. for 20 min in the dark, centrifuged and washed with PBS. The test compounds were dissolved in DMSO at 10 mM and serially pre-diluted in DMSO (100%) to avoid precipitation, before performing final dilution steps in binding buffer.
The labelled Jurkat cells were re-suspended in binding buffer and test compounds or solvent control were added. The DMSO concentration was kept constant in all samples (1% DMSO as final assay concentration). After 40 min at 37° C. (LFA-1 activation and compound pre-incubation step) the cell suspension (3×10^5 cells/mL in binding buffer) was pipetted up and down and transferred to the ligand-coated microtiter V well plates (30 000 cells/well). The plates were centrifuged for 4 min at room temperature (rt) at 1000 rpm (Centrifuge Eppendorf 5810 R), setting the brake off Non-adherent cells that accumulated in the center of the Vbottom were quantified using a fluorescence reader with the filter sets allowing excitation at 485 nm and quantification of emission at 535 nm. The determination of the half maximal inhibitory concentration (IC50) of the compounds was calculated using the software GraphPad Prism 6.

[6] = test system: Jurkat cells; assay: CellTiter-Glo Luminescent Cell Viability Assay (ATP), Jurkat; conditions: 24 hours exposure, mean ± SD of triplicates
Description: as §1, §2, §3, §4, §5

[7] = molecular target: T2, LFA-1; assay: Flow cytometry, mAb MEM148 binding to LFA-1 expressed on leukocytes; conditions: solvent ctrl = 1, Jurkat cells or PBMCs
Protocol: Quantification of mAb MEM148 Binding to LFA-1 (mAb MEM148 Binding)
Purpose of the Assay: This flow cytometry assay determines the effect of the compounds on the binding of the conformation-sensitive anti-LFA-1 mAb MEM148 to LFA-1 expressed on leukocytes. The mAb MEM148 detects an epitope which becomes exposed in activated LFA-1 [Yuki 2012]
Experimental Protocol: The assay is performed as the flow cytometry assay described above.
Briefly, Jurkat cells or PBMCs in assay buffer (50 mM Tris, 150 mM NaCl, 1 mM CaCl2, 1 mM MgCl2, 5 mM Glucose, 1.5% BSA, pH 7.3) were pre-incubated with the compounds and appropriate positive controls for 40 min at rt. After incubation, the cell-suspension was centrifuged, the supernatant discarded and PE-labelled anti-LFA-1 mAb MEM148 was directly added to the pellets. After pipetting up and down, the tubes were incubated for 30 min. at 37° C. in the dark. The pellet was washed twice with 1 mL PBS and resuspended in PBS. Antibody binding was quantified by flow cytometry. Mean fluorescence intensities (MFI) were calculated using the CellQuest software.

[8] = molecular target: T2, LFA-1; assay: Flow cytometry, mAb R7.1 binding to LFA-1 expressed on leukocytes; conditions: Jurkat cells or human PBMCs, values of independent experiments; for inhibition at 1 µM: Jurkat
Protocol: Measurement of mAb R7.1 binding to LFA-1 (mAb R7.1 binding)
Purpose of the Assay: This flow cytometry assay determines the effect of the compounds on the binding of the anti-LFA-1 mAb R7.1 to LFA-1 expressed on leukocytes.
Experimental Protocol: Jurkat cells or human peripheral blood mononuclear cells (PBMCs) were resuspended in assay buffer (50 mM Tris, 150 mM NaCl, 2 mM MgCl2, 1.5% BSA and 5 mM D-glucose monohydrate, pH7.2) at 2×10^6 cells/mL and 500 μL of this cell suspension (1×10^6 cells) were transferred into polypropylene tubes containing the test compounds diluted in 500 μL assay buffer. The samples were pre-incubated at 37° C. for 40 min, and centrifuged. The supernatants were removed and FITC-labelled anti-LFA-1 mAb R7.1 and PE-labeled anti-LFA-1 mAb TS2/4 (mAb TS2/4 is not affected by alpha I allosteric inhibitor binding to LFA-1) or appropriate isotype controls were added directly to each cell pellet. The pellets were then gently pipetted up and down and incubated on ice for 30 min in the dark. After the incubation step the cells were washed twice with PBS and resuspended in PBS.
Antibody binding was analyzed by flow cytometry. Mean fluorescence intensities (MFI) were calculated using the CellQuest software. The values are expressed as % of solvent control (solvent control=100% binding).

T1 sequence (P13612 34-1032): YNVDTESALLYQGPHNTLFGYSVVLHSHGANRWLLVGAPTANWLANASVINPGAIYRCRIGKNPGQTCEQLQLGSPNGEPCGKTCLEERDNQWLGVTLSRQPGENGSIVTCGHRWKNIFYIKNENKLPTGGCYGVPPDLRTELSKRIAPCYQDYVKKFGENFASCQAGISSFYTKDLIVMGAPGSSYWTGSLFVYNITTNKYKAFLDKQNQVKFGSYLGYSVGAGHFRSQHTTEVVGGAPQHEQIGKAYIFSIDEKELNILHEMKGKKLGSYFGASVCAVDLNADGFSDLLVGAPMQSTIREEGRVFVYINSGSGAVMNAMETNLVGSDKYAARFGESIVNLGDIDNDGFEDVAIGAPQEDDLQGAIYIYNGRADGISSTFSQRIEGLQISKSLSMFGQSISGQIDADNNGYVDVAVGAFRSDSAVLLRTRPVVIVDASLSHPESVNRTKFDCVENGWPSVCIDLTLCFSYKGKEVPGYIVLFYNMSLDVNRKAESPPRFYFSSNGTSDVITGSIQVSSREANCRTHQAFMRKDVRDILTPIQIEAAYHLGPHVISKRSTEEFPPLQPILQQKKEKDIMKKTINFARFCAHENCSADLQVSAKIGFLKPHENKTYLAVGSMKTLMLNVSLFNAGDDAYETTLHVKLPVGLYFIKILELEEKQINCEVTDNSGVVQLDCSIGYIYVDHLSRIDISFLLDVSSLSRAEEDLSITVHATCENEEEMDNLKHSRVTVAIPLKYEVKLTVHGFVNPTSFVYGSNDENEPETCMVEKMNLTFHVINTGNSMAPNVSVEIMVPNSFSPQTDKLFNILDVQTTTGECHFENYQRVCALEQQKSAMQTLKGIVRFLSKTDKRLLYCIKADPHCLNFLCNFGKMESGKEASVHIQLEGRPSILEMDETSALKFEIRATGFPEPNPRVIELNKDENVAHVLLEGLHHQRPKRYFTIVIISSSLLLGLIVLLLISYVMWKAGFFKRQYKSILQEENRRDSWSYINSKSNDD
T1 sequence (P05556 21-798): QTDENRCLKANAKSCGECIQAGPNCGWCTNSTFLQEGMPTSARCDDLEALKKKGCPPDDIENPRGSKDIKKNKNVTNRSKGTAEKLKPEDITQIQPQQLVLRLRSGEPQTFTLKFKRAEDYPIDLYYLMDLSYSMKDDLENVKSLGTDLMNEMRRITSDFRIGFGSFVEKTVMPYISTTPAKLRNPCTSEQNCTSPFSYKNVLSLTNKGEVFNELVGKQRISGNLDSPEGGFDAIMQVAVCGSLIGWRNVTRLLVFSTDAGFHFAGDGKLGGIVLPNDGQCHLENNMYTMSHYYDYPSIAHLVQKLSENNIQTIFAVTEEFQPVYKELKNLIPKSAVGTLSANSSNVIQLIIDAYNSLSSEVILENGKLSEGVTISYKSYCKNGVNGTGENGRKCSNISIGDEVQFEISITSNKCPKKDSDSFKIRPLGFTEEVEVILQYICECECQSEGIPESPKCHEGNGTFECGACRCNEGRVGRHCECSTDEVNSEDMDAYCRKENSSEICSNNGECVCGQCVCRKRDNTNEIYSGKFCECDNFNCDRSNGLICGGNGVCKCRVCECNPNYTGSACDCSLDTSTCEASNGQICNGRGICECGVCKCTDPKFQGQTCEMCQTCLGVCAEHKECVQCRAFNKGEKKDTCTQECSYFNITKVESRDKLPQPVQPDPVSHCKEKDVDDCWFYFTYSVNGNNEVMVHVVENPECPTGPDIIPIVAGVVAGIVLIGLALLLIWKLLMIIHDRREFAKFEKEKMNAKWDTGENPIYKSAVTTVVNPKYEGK
T2 sequence (P20701 26-1170): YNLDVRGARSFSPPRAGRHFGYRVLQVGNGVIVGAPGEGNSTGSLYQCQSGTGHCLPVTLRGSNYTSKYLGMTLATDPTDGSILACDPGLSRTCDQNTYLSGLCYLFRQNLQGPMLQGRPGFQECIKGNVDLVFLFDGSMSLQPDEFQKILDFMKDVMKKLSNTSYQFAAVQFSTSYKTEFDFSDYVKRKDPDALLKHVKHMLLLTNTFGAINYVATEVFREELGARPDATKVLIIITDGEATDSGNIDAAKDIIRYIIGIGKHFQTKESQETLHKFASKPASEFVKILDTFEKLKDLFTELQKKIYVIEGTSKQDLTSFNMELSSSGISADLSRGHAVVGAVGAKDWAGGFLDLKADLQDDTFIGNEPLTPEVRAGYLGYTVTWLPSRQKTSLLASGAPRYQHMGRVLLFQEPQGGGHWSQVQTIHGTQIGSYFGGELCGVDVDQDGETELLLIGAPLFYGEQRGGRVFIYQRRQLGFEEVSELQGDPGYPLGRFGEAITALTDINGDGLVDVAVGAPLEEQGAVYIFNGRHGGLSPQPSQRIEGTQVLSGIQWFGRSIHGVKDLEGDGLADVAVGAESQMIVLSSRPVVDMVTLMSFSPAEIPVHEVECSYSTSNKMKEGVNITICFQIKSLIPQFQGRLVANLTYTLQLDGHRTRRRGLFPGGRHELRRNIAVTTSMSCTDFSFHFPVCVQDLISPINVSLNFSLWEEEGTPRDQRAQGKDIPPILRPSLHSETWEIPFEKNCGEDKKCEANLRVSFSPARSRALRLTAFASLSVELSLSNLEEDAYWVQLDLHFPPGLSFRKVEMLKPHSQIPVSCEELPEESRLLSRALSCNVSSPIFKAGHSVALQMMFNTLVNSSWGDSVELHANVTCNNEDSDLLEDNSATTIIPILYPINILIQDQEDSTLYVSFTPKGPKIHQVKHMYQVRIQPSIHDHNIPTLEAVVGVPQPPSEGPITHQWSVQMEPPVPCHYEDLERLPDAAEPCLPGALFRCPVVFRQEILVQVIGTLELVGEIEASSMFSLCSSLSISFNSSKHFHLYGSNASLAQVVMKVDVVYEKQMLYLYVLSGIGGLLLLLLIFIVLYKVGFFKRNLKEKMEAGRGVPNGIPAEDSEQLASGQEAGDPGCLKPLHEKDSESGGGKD
T2 sequence (P05107 23-769 partner): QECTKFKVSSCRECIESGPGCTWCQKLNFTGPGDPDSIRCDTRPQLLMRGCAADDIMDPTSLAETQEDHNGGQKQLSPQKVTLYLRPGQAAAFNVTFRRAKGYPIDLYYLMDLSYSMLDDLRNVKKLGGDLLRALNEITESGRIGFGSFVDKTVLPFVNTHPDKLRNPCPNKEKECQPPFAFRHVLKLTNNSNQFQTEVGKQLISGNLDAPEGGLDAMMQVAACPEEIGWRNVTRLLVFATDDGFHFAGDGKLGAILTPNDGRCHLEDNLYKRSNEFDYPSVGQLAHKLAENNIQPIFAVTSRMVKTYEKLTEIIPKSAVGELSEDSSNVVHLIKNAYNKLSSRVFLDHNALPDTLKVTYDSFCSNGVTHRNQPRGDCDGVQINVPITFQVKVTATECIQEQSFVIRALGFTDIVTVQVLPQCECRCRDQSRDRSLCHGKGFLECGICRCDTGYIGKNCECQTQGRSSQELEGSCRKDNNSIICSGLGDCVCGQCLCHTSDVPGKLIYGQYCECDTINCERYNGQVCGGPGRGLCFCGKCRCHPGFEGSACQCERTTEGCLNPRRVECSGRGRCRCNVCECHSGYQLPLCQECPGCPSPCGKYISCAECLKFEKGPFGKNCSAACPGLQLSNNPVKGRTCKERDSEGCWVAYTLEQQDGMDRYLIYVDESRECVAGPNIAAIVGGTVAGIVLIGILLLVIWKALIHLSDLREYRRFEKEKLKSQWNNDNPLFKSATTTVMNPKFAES

Structure (SMILES)	Toxilight Jurkat % viability at 10 μM [1] [%]	CellTiter-Glo HepG2 % viability at 10 μM [2] [%]	Toxilight HepG2 % viability at 10 μM [3] [%]	IC50 [4] [nM]	IC50 [5] [nM]	CellTiter-Glo Jurkat % viability at 10 μM [6] [%]	mAb MEM148 binding, binding relative to solvent ctrl at 10 μM [7]	mAb R7.1 binding % inhibition at 1 μM ([8]; 1 µM) [%]	inhibition at 1 µM [8] [%]
C[C@]12C(=O)N(c3cc(Cl)cc(Cl)c3)C(=O)[C@H]1[C@H]2c1ccc(C#N)cc1 (racemic) [4′h (racemate), rac-4-[(1R,5S,6S)-3-(3,5-Dichlorophenyl)-1-methyl-2,4-dioxo-3-azabicyclo[3.1.0]hexan-6-yl]benzonitrile]	93.5 ± 2.06	103.7 ± 3.2	78.3 ± 35.2	> 10000	147	112.6 ± 4.9	1.00	95.8	96.8
CCOC(=O)[C@@]1(c2ccc(Br)cc2)[C@@H]2C(=O)N(c3cc(Cl)cc(Cl)c3)C(=O)[C@@]21C (racemic) [4′j (racemate), rac-Ethyl-(1 S, 5R, 6R)-6-(4-bromophenyl)-3-(3,5-dichlorophenyl)-1-methyl-2,4-dioxo-3-azabicyclo[3.1.0]-hexane-6-carboxylate]				> 10000	375 ± 204		0.738		93.6
CC12C(=O)N(c3cc(Cl)cc(Cl)c3)C(=O)C1C2(c1ccccc1)c1ccccc1 (single isomer, unassigned) [4b enantiomer A]	100 ± 12.9	101.5 ± 1.9	120 ± 40.2	> 10000	1340 ± 678	92.8 ± 4.7	no		87.3
CC12C(=O)N(c3cc(Cl)cc(Cl)c3)C(=O)C1C2(c1ccc(C#N)cc1)c1ccc(OC(F)(F)F)cc1 (single isomer, unassigned) [4i/4′i diastereomer II (racemate), rac-4-[(1 S, 5S, 6S)- and rac-4-(1 S, 5S, 6R)-3-(3,5-Dichlorophenyl)-1-methyl-2,4-dioxo-6-[4-(trifluoro-methoxy)-phenyl]-3-azabicyclo[3.1.0]hexan-6-yl]benzonitrile]				> 10000	18 ± 14		0.937		98.6
